Test results taken from PubChem BioAssay (NCI).
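Following 48 hours of exposure in 96-well plates, responses at five concentrations were used to interpolate endpoints linearly. GI50: concentration for 50% inhibition of growth. TGI denotes the concentration required for complete inhibition of growth.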

Experiments:
Experiment in all cases: DTP human tumour cell line panel, 48 h
[1] = system: MOLT-4 leukemia
[2] = system: NCI-H23 lung
[3] = system: HOP-92 NSCLC
[4] = system: PC-3 prostate
[5] = system: SNB-19 CNS
[6] = system: DU-145 prostate
[7] = system: EKVX NSCLC
[8] = system: COLO 205 colon
[9] = system: SN12C renal
[10] = system: UACC-257 melanoma

Structure (SMILES): Cn1c2ccccc2c(=S)c2cc(NC(=O)CCCCC(=O)Nc3ccc4c(c3)c(=S)c3ccccc3n4C)ccc21
- TGI [1]: > 100 µM
- TGI [2]: > 100 µM
- TGI [3]: > 100 µM
- TGI [4]: > 100 µM
- TGI [5]: > 100 µM
- TGI [6]: > 100 µM
- TGI [7]: > 100 µM
- TGI [8]: > 100 µM
- TGI [9]: > 100 µM
- TGI [10]: > 100 µM

Structure (SMILES): COc1ccc2oc(-c3ccc(Cl)cc3)c(N3CCN(C)CC3)c2c1
- GI50 [1]: 2.28 µM
- TGI [1]: 6.95 µM
- GI50 [2]: 2.88 µM
- TGI [2]: 8.99 µM
- GI50 [3]: 0.37 µM
- TGI [3]: 2.78 µM
- GI50 [4]: 1.69 µM
- TGI [4]: 5.54 µM
- GI50 [5]: 1.97 µM
- TGI [5]: 5.18 µM
- GI50 [6]: 1.88 µM
- TGI [6]: 3.98 µM
- GI50 [7]: 0.603 µM
- TGI [7]: 2.47 µM
- GI50 [8]: 1.68 µM
- TGI [8]: 3.62 µM
- GI50 [9]: 2.52 µM
- TGI [9]: 10.2 µM
- GI50 [10]: 1.68 µM
- TGI [10]: 3.43 µM

Structure (SMILES): COC(=O)/C(Br)=C/c1c[nH]c2ccc(Br)cc12
- GI50 [1]: 10.6 µM
- TGI [1]: > 100 µM
- GI50 [2]: 15.3 µM
- TGI [2]: 33 µM
- GI50 [3]: 2.13 µM
- TGI [3]: 15.7 µM
- GI50 [4]: 11.2 µM
- TGI [4]: 27.8 µM
- GI50 [5]: 16.7 µM
- TGI [5]: 45.7 µM
- GI50 [6]: 13.2 µM
- TGI [6]: 25.9 µM
- GI50 [7]: 12.3 µM
- TGI [7]: 29.7 µM
- GI50 [8]: 12.5 µM
- TGI [8]: 25.1 µM
- GI50 [9]: 18.4 µM
- TGI [9]: 43.3 µM
- GI50 [10]: 24.1 µM
- TGI [10]: 69.4 µM

Structure (SMILES): COc1cccc(-c2cc(NCc3ccc4c(c3)OCO4)nc(N)n2)c1
- GI50 [1]: 0.11 µM
- TGI [1]: 12.8 µM
- GI50 [2]: 0.135 µM
- TGI [2]: 16.5 µM
- GI50 [3]: 4.04 µM
- TGI [3]: 20.5 µM
- GI50 [4]: 0.0868 µM
- TGI [4]: 48.3 µM
- GI50 [5]: 0.143 µM
- TGI [5]: 45.4 µM
- GI50 [6]: 0.125 µM
- TGI [6]: 12.1 µM
- GI50 [7]: 3.33 µM
- TGI [7]: 52.3 µM
- GI50 [8]: 0.0466 µM
- TGI [8]: 0.198 µM
- GI50 [9]: 0.103 µM
- TGI [9]: 22 µM

Structure (SMILES): COc1ccc2cc(C(=O)/C=C/c3ccccc3OC)ccc2c1
- GI50 [1]: 1.26 µM
- TGI [1]: 9.45 µM
- GI50 [2]: 5.02 µM
- TGI [2]: 23.3 µM
- GI50 [3]: > 22.6 µM
- TGI [3]: > 50.4 µM
- GI50 [4]: 2.62 µM
- TGI [4]: 23.1 µM
- GI50 [5]: 4.37 µM
- TGI [5]: > 51.4 µM
- GI50 [6]: 2.63 µM
- TGI [6]: 8.07 µM
- GI50 [7]: 17.5 µM
- TGI [7]: 58.5 µM
- GI50 [8]: 3.56 µM
- TGI [8]: 49.4 µM
- GI50 [9]: 1.97 µM
- TGI [9]: 6.82 µM
- GI50 [10]: 9.78 µM
- TGI [10]: 27.9 µM

Structure (SMILES): Cc1cc(Cl)ccc1Nc1nc(C(F)(F)F)ccc1C(=O)N/N=C/c1c(Cl)cccc1Cl
- GI50 [1]: 0.157 µM
- TGI [1]: 0.597 µM
- GI50 [2]: 0.489 µM
- TGI [2]: > 100 µM
- GI50 [3]: 0.221 µM
- TGI [3]: 0.664 µM
- GI50 [4]: 0.268 µM
- GI50 [5]: 0.683 µM
- TGI [5]: > 56.6 µM
- GI50 [6]: 0.548 µM
- TGI [6]: > 100 µM
- GI50 [7]: 0.211 µM
- TGI [7]: 2.97 µM
- GI50 [8]: 0.358 µM
- TGI [8]: 1.24 µM
- GI50 [9]: 0.262 µM
- TGI [9]: > 100 µM
- GI50 [10]: 0.393 µM
- TGI [10]: > 100 µM
